Read-outs that look alike come from different tables or passages of the source.
Key:
[1] = molecular target: T1, HCV NS5B polymerase 1a-H77 (Hepatitis C virus genotype 1a, UniProt P27958); test: biochemical; parameters: species or system HCV genotype 1a; conditions: enzyme, strain 1a H77; read-out: HCV Polymerase Strain 1a H77 IC50
T1 construct: six-histidine tag; made in house; host or cells: E. coli
Outline: (§1)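 Incorporation of [3H]UTP (0.284 μM), alongside 20 μM each CTP and ATP, into RNA copied from a 5 nM 2.1 kb genotype 1b negative-strand template was measured after 3 h at 30° C using purified His-tagged NS5B truncated at residue 570. Product was spermine-precipitated, filtered and scintillation-counted; nonlinear regression gave IC50.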

[2] = molecular target: T2, HCV NS5B polymerase 1a-H77-C316Y (Hepatitis C virus genotype 1a, UniProt P27958, C2736Y); test: biochemical; parameters: species or system HCV genotype 1a
T2 construct: six-histidine tag; made in house; host or cells: E. coli
Outline: as §1

[3] = system: HCV NS5B polymerase 1a-H77-C316Y; test: biochemical; parameters: species or system HCV genotype 1a; conditions: ratio of enzyme IC50s, 1a H77-C316Y / 1a H77
Outline: as §1

[4] = molecular target: T3, HCV NS5B polymerase 1b BK strain (Hepatitis C virus genotype 1b, UniProt P26663); test: HCV NS5B polymerase enzymatic inhibition assay, strain 1b BK; assay type: biochemical; conditions: enzyme, strain 1b BK; read-out: HCV Polymerase Strain 1b BK IC50
T3 construct: six-histidine tag; made in house; host or cells: E. coli
Outline: as §1

[5] = system: HCV 1a-H77 subgenomic replicon; test: microbe, parasite or virus in culture; assay type: cell-based, HCV genotype 1a; conditions: Hepatitis C virus, stable replicon
[6] = system: HCV 1b-BB7 subgenomic replicon; test: microbe, parasite or virus in culture; assay type: cell-based, HCV genotype 1b; conditions: Hepatitis C virus, stable replicon
[7] = system: chimeric replicon with 2a-J6CF-derived NS5B; test: microbe, parasite or virus in culture; assay type: cell-based, HCV genotype 2a; conditions: Hepatitis C virus, read-out: 2a chimera 5% FBS EC50
[8] = system: chimeric replicon with genotype 2b NS5B; test: microbe, parasite or virus in culture; assay type: cell-based, HCV genotype 2b; conditions: Hepatitis C virus, read-out: 2b chimera 5% FBS EC50
[9] = system: chimeric replicon with genotype 3a NS5B; test: microbe, parasite or virus in culture; assay type: cell-based, HCV genotype 3a; conditions: Hepatitis C virus, read-out: 3a chimera 5% FBS EC50
[10] = system: chimeric replicon with genotype 4a NS5B; test: microbe, parasite or virus in culture; assay type: cell-based, HCV genotype 4a; conditions: Hepatitis C virus, read-out: 4a chimera 5% FBS EC50
[11] = system: HCV 1a-H77 transient subgenomic replicon in Huh-7 derived cell line; test: microbe, parasite or virus in culture; assay type: cell-based, HCV genotype 1a; conditions: Hepatitis C virus, Huh-7; transient replicon, 5% FBS; read-out: Transient Replicon 1a H77 5% FBS EC50
Experimental: (§2) In addition to the stable replicon inhibition assays, transient replicon assays were performed. Transient replicons are identical to the 1a-H77 and 1a-H77-C316Y constructs, except they lack the Neo gene, making it impossible to establish stable cell lines. A T7 Megascript RNA synthesis kit (Ambion) was used to transcribe the HCV subgenomic RNA. The HCV RNA was then precipitated with lithium chloride according to manufacturer's instructions. The HCV subgenomic replicon RNA was transfected via electroporation into a Huh-7 derived cell line as described (Middleton T, et al. J. Virological Methods 2007; 145(2): 137-145). Transfected cells were diluted and plated in 96 well plates at 5×10^3 cells per well in DMEM. Four hours post-transfection, the wells from one plate were harvested for luciferase measurement. This plate provides a measure of the amount of translatable input RNA, and therefore transfection efficiency. To the wells of the remaining plates, a 3-fold dilution series of test compounds was added in DMSO (0.5% DMSO final concentration), and plates were incubated at 37° C., 5% CO2 in a humidified incubator for 4 days. After this period, the media was removed and the plates were washed with 100 μL phosphate-buffered saline per well. For the luciferase assay, 30 μL of Passive Lysis buffer (Promega) was added to each well, and then the plates were incubated for 15 minutes with rocking to lyse the cells. Luciferin solution (100 μL, Promega) was added to each well, and luciferase activity was measured with a Victor II luminometer (Perkin-Elmer). The EC50 values were calculated using GraphPad Prism 4 software.

[12] = system: HCV 1a-H77-C316Y transient subgenomic replicon in Huh-7 derived cell line; test: microbe, parasite or virus in culture; assay type: cell-based, HCV genotype 1a; conditions: for EC50: Hepatitis C virus, Huh-7, read-out: Transient Replicon 1a H77-C316Y 5% FBS EC50; for Transient Replicon Fold Resistance C316Y/1a: ratio of transient replicon EC50s, C316Y / 1a H77
Experimental: as §2

[13] = 5% FBS, absence of human plasma, read-out: Stable Replicon 1a H77 5% FBS EC50
[14] = strain 1a H77, 5% FBS + 40% human plasma, read-out: 1a H77 5% FBS + 40% Human Plasma EC50
[15] = strain 1a H77, 5% FBS, no human plasma, read-out: 1a H77 5% FBS EC50
[16] = strain 1a H77, 5% FBS, read-out: 1a H77 5% FBS EC50
[17] = strain 1b BB7, 5% FBS + 40% human plasma, read-out: 1b BB7 5% FBS + 40% Human Plasma EC50
[18] = strain 1b BB7, 5% FBS, no human plasma, read-out: 1b BB7 5% FBS EC50
[19] = strain 1b BB7, 5% FBS, read-out: 1b BB7 5% FBS EC50

T2 sequence (P27958 2421-2990 C2736Y): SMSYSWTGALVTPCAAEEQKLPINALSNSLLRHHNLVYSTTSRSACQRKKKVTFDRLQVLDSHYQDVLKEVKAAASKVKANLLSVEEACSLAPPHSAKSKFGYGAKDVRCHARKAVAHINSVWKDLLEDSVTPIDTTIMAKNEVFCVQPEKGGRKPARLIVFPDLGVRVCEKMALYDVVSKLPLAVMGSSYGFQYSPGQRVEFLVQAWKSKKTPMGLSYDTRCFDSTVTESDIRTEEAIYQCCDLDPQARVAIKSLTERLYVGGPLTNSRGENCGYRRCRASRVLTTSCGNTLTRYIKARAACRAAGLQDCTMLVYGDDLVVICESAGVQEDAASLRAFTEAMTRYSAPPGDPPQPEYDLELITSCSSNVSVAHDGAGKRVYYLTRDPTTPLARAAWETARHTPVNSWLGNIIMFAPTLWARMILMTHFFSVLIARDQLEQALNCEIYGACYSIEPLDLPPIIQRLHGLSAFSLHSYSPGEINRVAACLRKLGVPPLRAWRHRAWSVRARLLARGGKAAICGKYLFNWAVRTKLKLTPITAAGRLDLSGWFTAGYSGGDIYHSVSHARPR
T1 sequence (P27958 2421-2990): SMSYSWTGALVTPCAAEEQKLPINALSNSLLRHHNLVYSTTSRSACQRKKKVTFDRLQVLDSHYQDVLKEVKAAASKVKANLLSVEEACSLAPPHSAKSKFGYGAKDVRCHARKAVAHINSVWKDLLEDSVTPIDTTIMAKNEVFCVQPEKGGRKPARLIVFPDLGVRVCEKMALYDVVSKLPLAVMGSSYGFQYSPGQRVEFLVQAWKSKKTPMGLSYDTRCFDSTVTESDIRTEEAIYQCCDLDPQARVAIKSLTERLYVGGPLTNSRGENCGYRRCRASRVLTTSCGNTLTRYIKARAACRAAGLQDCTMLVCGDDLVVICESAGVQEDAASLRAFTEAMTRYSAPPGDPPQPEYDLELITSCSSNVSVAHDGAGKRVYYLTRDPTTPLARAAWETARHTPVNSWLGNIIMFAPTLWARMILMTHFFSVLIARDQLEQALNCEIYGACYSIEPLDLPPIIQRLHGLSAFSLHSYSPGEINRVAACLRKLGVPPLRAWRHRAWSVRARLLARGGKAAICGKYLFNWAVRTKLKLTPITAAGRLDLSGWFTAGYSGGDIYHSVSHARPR
T3 sequence (P26663 2420-2989): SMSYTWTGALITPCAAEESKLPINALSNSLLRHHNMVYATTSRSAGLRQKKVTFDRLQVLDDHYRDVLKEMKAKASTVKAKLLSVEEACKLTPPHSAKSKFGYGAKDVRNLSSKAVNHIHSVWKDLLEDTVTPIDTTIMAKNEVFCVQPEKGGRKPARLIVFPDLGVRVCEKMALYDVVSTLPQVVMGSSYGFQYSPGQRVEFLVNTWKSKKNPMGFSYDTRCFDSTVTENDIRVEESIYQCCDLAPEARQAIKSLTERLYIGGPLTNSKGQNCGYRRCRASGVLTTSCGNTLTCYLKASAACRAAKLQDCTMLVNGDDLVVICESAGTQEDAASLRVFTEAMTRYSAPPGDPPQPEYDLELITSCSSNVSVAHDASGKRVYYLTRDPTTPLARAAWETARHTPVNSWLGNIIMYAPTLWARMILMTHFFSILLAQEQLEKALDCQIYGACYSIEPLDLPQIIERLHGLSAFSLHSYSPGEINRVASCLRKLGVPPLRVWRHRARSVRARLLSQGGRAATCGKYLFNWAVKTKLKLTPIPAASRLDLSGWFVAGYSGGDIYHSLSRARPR

Row | Structure (SMILES) | IC50 [1] [nM] | IC50 [2] [nM] | C316Y/1a Fold Resistance [3] [fold] | IC50 [4] [nM] | EC50 [5, 13] [nM] | EC50 [5, 14] [nM] | EC50 [5, 15] [nM] | EC50 [5, 16] [nM] | EC50 [6, 17] [nM] | EC50 [6, 18] [nM] | EC50 [6, 19] [nM] | EC50 [7] [nM] | EC50 [8] [nM] | EC50 [9] [nM] | EC50 [10] [nM] | EC50 [11] [nM] | EC50 [12] [nM] | Transient Replicon Fold Resistance C316Y/1a [12] [fold]
1 | CS(=O)(=O)N(Cc1cnc(-c2ccc3nc[nH]c3c2)s1)c1ccc2c(-c3ncc[nH]3)c(-c3ccccc3)oc2c1 [Example 3, N-{[2-(1H-benzimidazol-6-yl)-1,3-thiazol-5-yl]methyl}-N-[3-(1H-imidazol-2-yl)-2-phenyl-1-benzofuran-6-yl]methanesulfonamide] | 3 | 11 | 4 | 10 | 48 | 7930 | 48 | 48 | 760 | 5 | 5 | 29.3 | 81.8 | 2.8 | 135 | 21.3 | 109 | 5
2 | CC(C)CCN(c1cc2oc(-c3ccc(F)cc3)c(-c3ncc[nH]3)c2cc1C1CC1)S(C)(=O)=O [Example 4, N-[5-cyclopropyl-2-(4-fluorophenyl)-3-(1H-imidazol-2-yl)-1-benzofuran-6-yl]-N-(3-methylbutyl)methanesulfonamide] | 5.3 | 57 | 11 | 11 | 29 | 512 | 29 | 29 | 297 | 25 | 25 | 156 | 270 | 11 | 169 | 7.9 | 69.4 | 9
3 | CC(C)CCN(c1cc2oc(-c3ccc(F)cc3)c(C3=NOCCN3)c2cc1C1CC1)S(C)(=O)=O [Example 10, N-[5-cyclopropyl-3-(5,6-dihydro-4H-1,2,4-oxadiazin-3-yl)-2-(4-fluorophenyl)-1-benzofuran-6-yl]-N-(3-methylbutyl)methanesulfonamide] | 7 | 64 |  | 105 | 10.5 | 134 | 10.5 | 10.5 | 171 | 16.2 | 16.2 | 181 | 303 | 16 | 192 | 6 | 33.5 | 6
4 | CC(C)CCN(c1cc2oc(-c3ccc(F)cc3)c(C3=NOC(C)N3)c2cc1C1CC1)S(C)(=O)=O (stereo not shown) [Example 14, N-[5-cyclopropyl-2-(4-fluorophenyl)-3-(5-methyl-4,5-dihydro-1,2,4-oxadiazol-3-yl)-1-benzofuran-6-yl]-N-(3-methylbutyl)methanesulfonamide] | 8.5 | 70 | 8 | 35 | 24.3 | 805 | 24.3 | 24.3 | 1060 | 93.5 | 93.5 |  |  |  |  | 28.1 | 152 | 5

— patent publication US20160355530A1, “HEPATITIS C INHIBITORS AND USES THEREOF” (AbbVie Inc., priority 2010, published 2016)
